Target: HIV IN (Human immunodeficiency virus type 1 group M subtype B, UniProt P04585)
Assay: HIV IN 3′ processing
Format: biochemical

CNC(=O)c1nc(Cc2ccc(F)cc2)n(C)c(=O)c1O [compound 11]
IC50: > 333 µM

COCCNC(=O)c1nc(Cc2ccc(F)cc2)[nH]c(=O)c1O [compound 8]
IC50: > 333 µM

CN(C)CCCNC(=O)c1nc(Cc2ccc(F)cc2)[nH]c(=O)c1O [compound 9]
IC50: > 333 µM

CNC(=O)c1nc(C)n(Cc2ccc(F)cc2)c(=O)c1O [compound 6]
IC50: > 333 µM

CNC(=O)c1nc(Cc2ccc(F)cc2)[nH]c(=O)c1O [compound 7]
IC50: > 333 µM

O=C(O)c1nc(Cc2ccc(F)cc2)[nH]c(=O)c1O [compound 10]
IC50: > 333 µM
